Test results from patent US20040234509A1, “Replacing liver cells with bone marrow-derived cells for treating disease and expressing therapeutic genes” (priority 2002, published 2004).

System: Kupffer cells
Test: Kupffer cell replacement in mice: gadolinium chloride followed by GFP bone marrow stem cells
Assay type: in vivo, C57BL/6 mice
Protocol: Bone marrow derived from C57BL/6-TgN(ACTbEGFP)10sb mice was injected into the tail vein of recipient C57BL/6 mice. Recipient mice were separated into two groups. One group received saline injection the other received gadolinium chloride (20-60 mg/kg i.v.: ICN Biomedicals, Aurora, Ohio) 24 hours before they received the bone marrow cells obtained from C57BL/6-TgN (ACTbEGFP) 10sb mice. The amount of bone marrow cells administered varied between 2×10^6 to 100×10^6 cells/animal. Mice were sacrificed 2 weeks after the stem cells were injected and livers were removed, fixed and prepared for fluorescent microscopy.
C57BL/6 mice were injected with 60 mg/Kg of gadolinium chloride 24 hours before injecting stem cells intravenously.

[1] = 60 mg/Kg gadolinium chloride 24 hours before stem cells i.v., two weeks after injection

Compound: [Cl][Gd]([Cl])[Cl] [gadolinium chloride]
- GFP labeled Kupffer cells in liver, 10×10^6 stem cells vs 2×10^6 stem cells [1]: many more GFP labeled Kupffer cells
- number of GFP-labeled Kupffer cells, 100×10^6 stem cells vs 10×10^6 stem cells [1]: did not significantly increase the number of GFP-labeled Kupffer cells
- survival / evidence of toxicity (C57BL/6 mice, gadolinium chloride 20-60 mg/kg i.v. plus 2×10^6 to 100×10^6 bone marrow cells/animal, 2 weeks): All mice survived and none showed evidence of any toxicity
- GFP-fluorescent Kupffer cells in liver (fluorescent microscopy) (gadolinium chloride 20-60 mg/kg i.v. 24 hours before bone marrow cells from TgN(ACTbEGFP)1Osb mice, livers 2 weeks after stem cells, vs saline control): contained many GFP-fluorescent Kupffer cells
